Measurements: US20020177172A1, “RESTORATION OF PLATELET AGGREGATION BY ANTIBODY ADMINISTRATION AFTER GPIIB/IIIA ANTAGONIST TREATMENT” (priority 1996, published 2002)
In brackets after ≈: the same amount, converted by molar mass. Where a name gives a salt, the structure may show the parent alone. Square brackets hold non-standard residues; d marks the D form. Peptide text beside a SMILES is read from it. NMeR = CN[C@@H](CCCNC(=N)N)C(=O)O; 3Amb = NCc1cccc(C(=O)O)c1; dAbu = CC[C@@H](N)C(=O)O

How the values were obtained:
[1] = tested on: platelet aggregation; test: In vivo platelet aggregation, dogs (ex vivo aggregation response); conditions: dog, capsule of 10 mg BID for 4 days (15 mg on day 3)
Method: Three beagle dogs were therefore infused with compound B while monitoring blood pressure, heart rate, PT (prothrombin time), and aPTT (activated partial thromboplastin time). […] In a second study, a dog was treated with a capsule of 10 mg of compound A, BID for 4 days (15 mg on day 3) prior to antibody testing. […] Four hours after the last oral dose of compound A, a dose of pentobarbitol and the monoclional antibody ([…]-9F7) was infused by a i.v. bolus injection. Each bolus contained a 5-fold molar excess over drug plasma levels (about 50 mg of Mab 9F7). A control dog was given identical amounts of antibody without compound A oral dosing.

[2] = tested on: heparinized human whole blood; test: Activated clotting time (ACT) in heparinized human whole blood, Hemochron-8000; format: cell-based; conditions: 1.4 Units/mL heparin; FIG. 1
Description: This process can be used to calculate a standardized concentration curve for various known concentrations of anti-platelet compounds. The process can also be used to measure activated clotting times for use in calculating the ACT number for the processes of the invention.
A. Blood was drawn from a human volunteer into a syringe containing heparin. The heparin to whole blood ratio was 1:10 such that the final concentration of heparin in the syringe was 1.4 Units/mL.
B. The Hemochron™-8000 was set up to run ACT using the P-215 tubes from the same manufacturer (International Technidyne).
A. A 1 mL sample of the above heparinized blood was admixed and maintained (incubated) with 2.5-10 μl of antagonist compound or saline for 5 minutes at room temperature.
B. The Hemochron™ was started as 400 μl of the test sample was pipetted into the P-215 tube. The tube contents were gently mixed, placed into the Hemochron™ and turned one revolution until the light on the instrument came on.
C. Step B was repeated for the second channel of the instrument within 30 seconds to give an average activated clotting time. […]
The activated clotting time was first measured (in seconds) for control whole blood from each donor containing only 1.4 Units/mL of heparin. The clotting times were then measured as in Example 1 by varying concentrations of antiplatelet compounds B and D in addition to heparin for each donor. […]

[3] = tested on: human platelet rich plasma; test: Aggregation of human platelet rich plasma; format: cell-based; conditions: read-out: inhibition of aggregation by the compound itself; for inhibition at 0.05 µM: 5×10^−8 M
Method: Human platelet rich plasma (“PRP”) was prepared by centrifugation of citrated whole blood at 970×g for 3.5 minutes at room temperature. PRP was carefully removed from red cells and placed in 50 mL conical tubes. Platelet aggregation was measured as an increase in light transmission in an aggregometer (Bio/Data model PAP-4, Horsham, Pa.) using ADP (20 μM) or collagen (4 μg/mL) as the agonist.
Antibodies produced according to Example 4 were assayed in aggregation for their ability to neutralize (at 60 nM) the GPIIb/IIIa antagonists compound B (5×10^−8 M), compound D (1×10^−7 M), and Merck compound MK383 (5×10^−8 M), as a means of screening which ones recognized the antagonists in a useful manner. The levels of antiplatelet compounds used provided at least 50 percent inhibition of aggregation by themselves. Results are illustrated in FIG. 3.
Collagen-induced platelet aggregation was measured in the presence of 50 nM compound B or 100 nM compound D over 3 minutes in the presence or absence of Mab 9F7 inclusion at 60 nM.

[4] = Total and free plasma levels of compound B in dog; format: in vivo; conditions: three bolus infusions of Mab 9F7, FIG. 11
Method: In a second study, a dog was treated with a capsule of 10 mg of compound A, BID for 4 days (15 mg on day 3) prior to antibody testing. […] Four hours after the last oral dose of compound A, a dose of pentobarbitol and the monoclional antibody (P187-9F7) was infused by a i.v. bolus injection. Each bolus contained a 5-fold molar excess over drug plasma levels (about 50 mg of Mab 9F7). A control dog was given identical amounts of antibody without compound A oral dosing. Blood samples were collected for aggregation assays at 5, 15, 30 and 60 minutes after each bolus administration of antibody, plasma levels of Mab 9F7, and total and free plasma levels of compound B.
This method involves the extraction of compound B and an internal standard (compound F, shown hereinafter) from acidified dog plasma with a C18 solid phase extraction column. Analysis is by reverse phase high performance liquid chromatography with fluorescence detection. Calibration standards were prepared in human heparinized plasma. Quality control pools were prepared in dog plasma and quantified using the human calibration curve. A linear weighted (1/concentration squared) least squares regression analysis was used to quantify samples. This method was validated with a minimum quantifiable level of 1.00 ng/mL. […]
Removed the samples to be analyzed from the freezer and thawed. […] The filtrate was then analyzed by the method given below. […]

[5] = Removal from circulation / elimination half-life; format: in vivo; conditions: for route of removal from circulation: in vivo; for change of elimination half-life with decreased creatinine clearance: renal impairment
[6] = tested on: platelet aggregation; test: IC50 values of antiplatelet compounds (FIG. 1 legend); format: cell-based
[7] = Half-life of compound B in guinea pig; format: in vivo
[8] = tested on: platelet aggregation; conditions: 20 mg/kg infused into femoral vein of anesthetized dogs; cited from earlier work

Row | SMILES | effect of compound concentration on activated clotting time [2] | inhibition at 0.05 µM [3] | route of removal from circulation [5] | change of elimination half-life with decreased creatinine clearance [5] | IC50 [6] | other results
1 | C#C[C@H](CC(=O)OCC)NC(=O)CCC(=O)Nc1ccc(C(=N)N)cc1.Cl [Compound A, ethyl 3S-[[4-[[4-(aminoiminomethyl)phenyl]-amino]-1,4-dioxobutyl]amino]-4-pentynoate monohydrochloride] | – | – | – | – | – | inhibition of platelet function [1]: 54%
2 | C#C[C@H](CC(=O)O)NC(=O)CCC(=O)Nc1ccc(C(=N)N)cc1 [Compound B, 3S-[[4-[[4-(aminoiminomethyl)phenyl]amino]-1,4-dioxobutyl]amino]-4-pentynoic acid] | directly affect the activated clotting time | ≥ 50% | almost exclusively by the kidney | appreciable increases | 0.027 µg/mL (≈ 0.0817 µM) | levels of total compound B (free plus antibody bound) [4]: increased throughout the three infusions; half-life [7]: short
3 | N=C(N)c1ccc(N2CC[C@H](NC(=O)NCCC(=O)O)C2=O)cc1 [Compound D, 3-[[[[1-[4-(aminoiminomethyl)phenyl]-2-oxo-pyrrolidin-3S-yl]amino]carbonyl]amino]propanoic acid] | directly affect the activated clotting time | – | almost exclusively by the kidney | appreciable increases | 0.043 µg/mL (≈ 0.129 µM) | inhibition at 0.1 µM ([3]; 1×10^−7 M): ≥ 50%
4 | CC[C@H]1NC(=O)c2cccc(c2)CNC(=O)[C@H](CC(=O)O)NC(=O)CNC(=O)[C@H](CCCNC(=N)N)N(C)C1=O [DMP728, cyclic [D-2-aminobutyryl-N2-methyl-L-arginyl-glycyl-L-aspartyl-3-aminomethyl-benzoic acid] methanesulfonic acid salt] (cyclo([NMeR]GD[3Amb][dAbu])) | – | – | – | – | – | duration of inhibition of platelet aggregation [8]: up to 210 minutes; inhibition of platelet aggregation, measured ex vivo [8]: nearly complete inhibition
5 | CCCCS(=O)(=O)N[C@@H](Cc1ccc(OCCCCC2CCNCC2)cc1)C(=O)O [MK383, N-(butylsulfonyl)-0-(4-(4-piperidinyl)butyl)-L-tyrosine, monohydrochloride, reference compound] | – | ≥ 50% | – | – | – | –
